Biological target: T1, human TLR8 (Homo sapiens, UniProt Q9NR97)
T1 construct: host or cells: HEK293 (HEK-Blue hTLR8)
T1 sequence (Q9NR97 27-1041): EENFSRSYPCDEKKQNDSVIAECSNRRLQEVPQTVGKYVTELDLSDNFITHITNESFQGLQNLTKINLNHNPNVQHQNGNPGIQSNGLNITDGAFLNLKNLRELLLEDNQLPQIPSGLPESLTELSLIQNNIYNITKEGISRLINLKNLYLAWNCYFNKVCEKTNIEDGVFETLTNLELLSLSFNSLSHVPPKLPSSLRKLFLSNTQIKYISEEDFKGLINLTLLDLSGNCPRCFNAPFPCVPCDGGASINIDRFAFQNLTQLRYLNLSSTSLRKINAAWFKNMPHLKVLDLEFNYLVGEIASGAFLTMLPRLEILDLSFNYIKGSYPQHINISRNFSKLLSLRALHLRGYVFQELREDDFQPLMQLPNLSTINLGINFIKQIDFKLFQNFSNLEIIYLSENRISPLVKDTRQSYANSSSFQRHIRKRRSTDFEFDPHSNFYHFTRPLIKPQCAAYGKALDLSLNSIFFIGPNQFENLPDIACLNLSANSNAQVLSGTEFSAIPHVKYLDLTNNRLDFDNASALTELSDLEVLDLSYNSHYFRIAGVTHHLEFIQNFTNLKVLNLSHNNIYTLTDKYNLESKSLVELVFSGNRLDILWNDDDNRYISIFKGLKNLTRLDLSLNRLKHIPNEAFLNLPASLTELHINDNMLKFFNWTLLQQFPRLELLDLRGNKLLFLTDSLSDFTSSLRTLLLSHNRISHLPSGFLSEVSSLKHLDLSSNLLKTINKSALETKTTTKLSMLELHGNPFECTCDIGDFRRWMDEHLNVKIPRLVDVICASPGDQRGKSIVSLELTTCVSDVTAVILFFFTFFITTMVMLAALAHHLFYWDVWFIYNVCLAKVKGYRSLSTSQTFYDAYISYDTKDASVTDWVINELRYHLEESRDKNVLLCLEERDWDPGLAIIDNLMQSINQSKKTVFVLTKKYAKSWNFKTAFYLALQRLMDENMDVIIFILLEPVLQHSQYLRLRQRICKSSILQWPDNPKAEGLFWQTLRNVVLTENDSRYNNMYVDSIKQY
Experiment: HEK293-Blue-hTLR-8 cells assay
Type: cell-based
Conditions: HEK293-Blue-hTLR8 cells, R848 stimulation, 20 hrs, SEAP reporter; read-out: HEK/hTLR8 IC50
Description: A stable HEK293-Blue-hTLR-8 cell line was purchased from InvivoGen (Cat. #: hkb-htlr8, San Diego, Calif., USA). These cells were originally designed for studying the stimulation of human TLR8 by monitoring the activation of NF-κB. A SEAP (secreted embryonic alkaline phosphatase) reporter gene was placed under the control of the IFN-β minimal promoter fused to five NF-κB and AP-1-binding sites. The SEAP was induced by activating NF-κB and AP-1 via stimulating HEK-Blue hTLR8 cells with TLR8 ligands. Therefore the reporter expression was declined by TLR8 antagonist under the stimulation of a ligand, such as R848, for incubation of 20 hrs. The cell culture supernatant SEAP reporter activity was determined using QUANTI-Blue™ kit (Cat. #: rep-qb1, Invivogen, San Diego, Ca, USA) at a wavelength of 640 nm, a detection medium that turns purple or blue in the presence of alkaline phosphatase.
HEK293-Blue-hTLR8 cells were incubated at a density of 250,000-450,000 cells/mL in a volume of 170 μL in a 96-well plate in Dulbecco's Modified Eagle's medium (DMEM) containing 4.5 g/L glucose, 50 U/mL penicillin, […], […], 2 mM L-glutamine, 10% (v/v) heat-inactivated fetal bovine serum with addition of 20 μL test compound in a serial dilution in the presence of final DMSO at 1% and 10 μL of 60 uM R848 in above DMEM, perform incubation under 37° C. in a CO2 incubator for 20 hrs. Then 20 μL of the supernatant from each well was incubated with […] Quanti-blue substrate solution at 37° C. for 2 hrs and the absorbance was read at 620-655 nm using a spectrophotometer. The signaling pathway that TLR8 activation leads to downstream NF-κB activation has been widely accepted, and therefore similar reporter assay was modified for evaluating TLR8 antagonist.

Structure (SMILES)	IC50 [nM]
C[C@@H]1Cc2c(cnn2C2CN(C[C@H]3CN(c4ccc(C#N)c5ncccc45)C[C@@H](C)O3)C2)CN1 [Example 16, 5-[(2R,6S)-2-methyl-6-[[3-[(6R)-6-methyl-4,5,6,7-tetrahydropyrazolo[4,3-c]pyridin-1-yl]azetidin-1-yl]methyl]morpholin-4-yl]quinoline-8-carbonitrile]	16
C[C@@H]1CN(c2ccc(C#N)c3ncccc23)C[C@H](CN2CC(n3ncc4c3C[C@H](C)NC4)C2)O1 [Example 18, 5-[(2R,6S)-2-methyl-6-[[3-[(6S)-6-methyl-4,5,6,7-tetrahydropyrazolo[4,3-c]pyridin-1-yl]azetidin-1-yl]methyl]morpholin-4-yl]quinoline-8-carbonitrile]	19
C[C@@H]1CN(c2ccc(C#N)c3ncccc23)C[C@H](CN2CC(n3cc4c(n3)C[C@H](C)NC4)C2)O1 [Example 19, 5-[(2R,6S)-2-methyl-6-[[3-[(6S)-6-methyl-4,5,6,7-tetrahydropyrazolo[4,3-c]pyridin-2-yl]azetidin-1-yl]methyl]morpholin-4-yl]quinoline-8-carbonitrile]	22
C[C@@H]1CN(c2ccc(C#N)c3ncccc23)C[C@H](CN2CC(n3ncc4c3CCN[C@@H]4C)C2)O1 [Example 20, 5-[(2R,6S)-2-methyl-6-[[3-[(4R)-4-methyl-4,5,6,7-tetrahydropyrazolo[4,3-c]pyridin-1-yl]azetidin-1-yl]methyl]morpholin-4-yl]quinoline-8-carbonitrile]	28
C[C@@H]1CN(c2ccc(C#N)c3ncccc23)C[C@H](CN2CC(n3cc4c(n3)CCN[C@H]4C)C2)O1 [Example 23, 5-[(2R,6S)-2-methyl-6-[[3-[(4S)-4-methyl-4,5,6,7-tetrahydropyrazolo[4,3-c]pyridin-2-yl]azetidin-1-yl]methyl]morpholin-4-yl]quinoline-8-carbonitrile]	44
C[C@@H]1CN(c2ccc(C#N)c3ncccc23)C[C@H](CN2CCC(n3ncc4c3CCNC4)CC2)O1 [Example 35, 5-[(2R,6S)-2-methyl-6-[[4-(4,5,6,7-tetrahydropyrazolo[4,3-c]pyridin-1-yl)-1-piperidyl]methyl]morpholin-4-yl]quinoline-8-carbonitrile]	25
C[C@@H]1CN(c2ccc(C#N)c3ncccc23)C[C@H](CN2CCC(n3cc4c(n3)CCNC4)CC2)O1 [Example 36, 5-[(2R,6S)-2-methyl-6-[[4-(4,5,6,7-tetrahydropyrazolo[4,3-c]pyridin-2-yl)-1-piperidyl]methyl]morpholin-4-yl]quinoline-8-carbonitrile]	40
Cc1c2c(nn1C1CN(C[C@H]3CN(c4ccc(C#N)c5ncccc45)C[C@@H](C)O3)C1)CNCC2 [Example 43, 5-[(2R,6S)-2-methyl-6-[[3-(3-methyl-4,5,6,7-tetrahydropyrazolo[3,4-c]pyridin-2-yl)azetidin-1-yl]methyl]morpholin-4-yl]quinoline-8-carbonitrile]	34

Further molecules by falling IC50, results first:

IC50 [nM]	Structure (SMILES)
72	C[C@@H]1CN(c2ccc(C#N)c3ncccc23)C[C@H](CN2CC(n3cc4c(n3)CCN[C@@H]4C)C2)O1 [Example 21, 5-[(2R,6S)-2-methyl-6-[[3-[(4R)-4-methyl-4,5,6,7-tetrahydropyrazolo[4,3-c]pyridin-2-yl]azetidin-1-yl]methyl]morpholin-4-yl]quinoline-8-carbonitrile]
37	C[C@@H]1CN(c2ccc(C#N)c3ncccc23)C[C@H](CN2CC(n3ncc4c3CCN[C@H]4C)C2)O1 [Example 22, 5-[(2R,6S)-2-methyl-6-[[3-[(4S)-4-methyl-4,5,6,7-tetrahydropyrazolo[4,3-c]pyridin-1-yl]azetidin-1-yl]methyl]morpholin-4-yl]quinoline-8-carbonitrile]
18	C[C@@H]1Cc2nn(C3CN(C[C@H]4CN(c5ccc(C#N)c6ncccc56)C[C@@H](C)O4)C3)cc2CN1 [Example 17, 5-[(2R,6S)-2-methyl-6-[[3-[(6R)-6-methyl-4,5,6,7-tetrahydropyrazolo[4,3-c]pyridin-2-yl]azetidin-1-yl]methyl]morpholin-4-yl]quinoline-8-carbonitrile]
18	Cc1nn(C2CN(C[C@H]3CN(c4ccc(C#N)c5ncccc45)C[C@@H](C)O3)C2)c2c1CCNC2 [Example 42, 5-[(2R,6S)-2-methyl-6-[[3-(3-methyl-4,5,6,7-tetrahydropyrazolo[3,4-c]pyridin-1-yl)azetidin-1-yl]methyl]morpholin-4-yl]quinoline-8-carbonitrile]
14	C[C@@H]1CN(c2ccc(C#N)c3ncccc23)C[C@H](CN2CC(n3cc4c(n3)C(C)(C)CNC4)C2)O1 [Example 24, 5-[(2S,6R)-2-[[3-(7,7-dimethyl-5,6-dihydro-4H-pyrazolo[4,3-c]pyridin-2-yl)azetidin-1-yl]methyl]-6-methyl-morpholin-4-yl]quinoline-8-carbonitrile]
